Data reported in ChEMBL document CHEMBL1129489.

Legend:
[1] = molecular target: D(1A) dopamine receptor (Homo sapiens) (UniProt P21728)
[2] = molecular target: D(2) dopamine receptor (Homo sapiens) (UniProt P14416)
[3] = molecular target: D(1A) dopamine receptor (Rattus norvegicus) (UniProt P18901); experiment: (§1) Low-affinity agonist dissociation constant against striatal Dopamine receptor D1A; type: functional
[4] = molecular target: D(2) dopamine receptor (Rattus norvegicus) (UniProt P61169)
[5] = molecular target: D(1A) dopamine receptor (Homo sapiens) (UniProt P21728); settings: COS-7
[6] = molecular target: D(1A) dopamine receptor (Homo sapiens) (UniProt P21728); experiment: as §1; type: functional
[7] = molecular target: D(1A) dopamine receptor (Homo sapiens) (UniProt P21728); remark: listed apart in the source
[8] = molecular target: D(1A) dopamine receptor (Homo sapiens) (UniProt P21728); settings: COS-7; remark: listed apart in the source

Chain of D(1A) dopamine receptor (Homo sapiens) (P21728 whole entry): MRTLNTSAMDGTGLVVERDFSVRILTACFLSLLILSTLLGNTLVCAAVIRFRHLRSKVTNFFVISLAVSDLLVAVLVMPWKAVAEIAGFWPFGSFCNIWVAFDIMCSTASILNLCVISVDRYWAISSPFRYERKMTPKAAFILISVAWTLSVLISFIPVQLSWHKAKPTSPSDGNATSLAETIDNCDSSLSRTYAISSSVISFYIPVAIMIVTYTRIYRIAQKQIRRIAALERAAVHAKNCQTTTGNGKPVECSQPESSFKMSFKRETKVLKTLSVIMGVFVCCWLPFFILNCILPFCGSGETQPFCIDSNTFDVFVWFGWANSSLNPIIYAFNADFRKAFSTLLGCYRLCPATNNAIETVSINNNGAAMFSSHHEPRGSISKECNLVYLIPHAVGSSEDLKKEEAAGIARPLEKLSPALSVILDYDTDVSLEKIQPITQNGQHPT
Chain of D(2) dopamine receptor (Rattus norvegicus) (P61169 whole entry): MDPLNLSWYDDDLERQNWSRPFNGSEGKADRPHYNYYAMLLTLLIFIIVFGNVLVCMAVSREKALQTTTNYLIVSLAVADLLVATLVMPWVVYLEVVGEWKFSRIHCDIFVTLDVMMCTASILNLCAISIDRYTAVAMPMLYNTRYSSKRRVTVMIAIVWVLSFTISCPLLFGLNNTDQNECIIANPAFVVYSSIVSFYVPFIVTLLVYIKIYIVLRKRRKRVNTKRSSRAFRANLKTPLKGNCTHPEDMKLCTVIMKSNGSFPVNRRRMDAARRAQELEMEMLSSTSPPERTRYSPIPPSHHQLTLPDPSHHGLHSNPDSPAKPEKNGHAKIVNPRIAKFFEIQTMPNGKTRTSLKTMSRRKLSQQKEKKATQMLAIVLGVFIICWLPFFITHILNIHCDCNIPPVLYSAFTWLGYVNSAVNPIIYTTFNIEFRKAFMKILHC
Chain of D(1A) dopamine receptor (Rattus norvegicus) (P18901 whole entry): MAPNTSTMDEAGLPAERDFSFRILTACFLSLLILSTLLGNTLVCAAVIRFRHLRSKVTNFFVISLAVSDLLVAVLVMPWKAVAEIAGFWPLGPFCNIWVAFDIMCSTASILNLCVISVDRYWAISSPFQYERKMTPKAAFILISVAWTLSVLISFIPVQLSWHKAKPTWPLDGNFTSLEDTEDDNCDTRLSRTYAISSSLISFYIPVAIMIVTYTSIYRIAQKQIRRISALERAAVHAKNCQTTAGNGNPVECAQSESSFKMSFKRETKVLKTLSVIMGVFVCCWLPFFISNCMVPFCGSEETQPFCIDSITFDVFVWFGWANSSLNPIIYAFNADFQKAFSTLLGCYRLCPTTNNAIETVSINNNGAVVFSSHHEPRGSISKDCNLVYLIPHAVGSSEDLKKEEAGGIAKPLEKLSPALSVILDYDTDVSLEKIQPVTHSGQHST
Chain of D(2) dopamine receptor (Homo sapiens) (P14416 whole entry): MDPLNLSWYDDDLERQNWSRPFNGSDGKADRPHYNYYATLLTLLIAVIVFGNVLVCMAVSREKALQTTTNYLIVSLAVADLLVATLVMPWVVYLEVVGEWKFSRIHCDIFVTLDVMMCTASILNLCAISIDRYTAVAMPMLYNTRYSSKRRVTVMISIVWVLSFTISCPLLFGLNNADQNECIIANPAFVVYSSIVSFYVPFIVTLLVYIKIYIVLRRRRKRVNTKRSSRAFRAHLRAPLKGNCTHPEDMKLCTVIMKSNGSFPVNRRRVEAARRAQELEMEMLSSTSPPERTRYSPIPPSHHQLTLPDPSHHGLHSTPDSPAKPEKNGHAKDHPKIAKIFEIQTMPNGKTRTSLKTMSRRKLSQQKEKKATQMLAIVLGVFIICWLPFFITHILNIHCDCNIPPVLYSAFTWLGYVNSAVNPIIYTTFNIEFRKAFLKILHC

CN1CCc2cccc3c2[C@H]1Cc1ccc(O)c(O)c1-3
KL [1]: 206 nM
KL [2]: 127 nM

NCCc1ccc(O)c(O)c1
KL [3]: 580 nM

CN(C)C1CCc2cc(O)c(O)cc2C1 (stereo unspecified)
KL [4]: 0.463 µM
KL [3]: 734 nM

NC[C@H](O)c1ccc(O)c(O)c1
KL [4]: 126 µM
KL [3]: 4140 nM
Log 1/Kd [5]: 4.69

CCCN1CCc2cccc3c2[C@@H]1Cc1ccc(O)c(O)c1-3
KL [6]: 5.2 µM

Oc1cc2c(cc1O)[C@@H](c1ccccc1)CNCC2
KL [3]: 381 nM

NCCc1c[nH]c2ccc(O)cc12
KL [4]: 183 µM
KL [3]: 6540 nM

C=CCN1CCc2c(cc(O)c(O)c2Cl)[C@@H](c2ccccc2)C1
KL [7]: 83 nM
Log 1/KL [8]: -1.92

Oc1ccc([C@@H]2CNCCc3c2cc(O)c(O)c3Cl)cc1
KL [3]: 1340 nM

CCCN1CCc2cccc3c2[C@H]1Cc1ccc(O)c(O)c1-3
KL [4]: 0.023 µM
KL [3]: 625 nM

CNC[C@H](O)c1ccc(O)c(O)c1
KL [4]: 128 µM
KL [3]: 980 nM

Oc1ccc(C2CNCCc3c2cc(O)c(O)c3Cl)cc1 (stereo unspecified)
KL [4]: 1 µM
KL [3]: 21 nM
